± gives the expanded uncertainty stated by the source.
Experiments:
[1] = xn = mol fraction of the nth substance listed; conditions: 308.15 K, 100.5 kPa, Liquid; for viscosity: Capillary tube (Ostwald / Ubbelohde) method
[2] = refractive index (Na D-line) (dimensionless); xn = mol fraction of the nth substance listed; conditions: 100.8 kPa, Liquid, Standard Abbe refractometry

CC(C)OC(C)C [diisopropyl ether] + CCO
[1]
Conditions | mass density [kg/m3] | viscosity [mPa·s]
x1 = 0.05 | 771.13 ± 0.25 | –
x1 = 0.1 | 765.84 ± 0.25 | –
x1 = 0.15 | 760.98 ± 0.25 | –
x1 = 0.2 | 756.58 ± 0.26 | –
x1 = 0.25 | 752.16 ± 0.26 | –
x1 = 0.3 | 748.12 ± 0.27 | –
x1 = 0.35 | 744.32 ± 0.27 | –
x1 = 0.4 | 740.76 ± 0.27 | –
x1 = 0.45 | 737.5 ± 0.28 | –
x1 = 0.5 | 734.3 ± 0.28 | –
x1 = 0.55 | 731.25 ± 0.28 | 0.383 ± 0.007
x1 = 0.6 | 728.37 ± 0.29 | 0.365 ± 0.007
x1 = 0.65 | 725.59 ± 0.29 | 0.35 ± 0.007
x1 = 0.7 | 722.86 ± 0.29 | 0.336 ± 0.006
x1 = 0.7499 | 720.23 ± 0.3 | 0.324 ± 0.006
x1 = 0.8 | 717.79 ± 0.3 | 0.314 ± 0.006
x1 = 0.85 | 715.31 ± 0.3 | 0.305 ± 0.006
x1 = 0.9 | 712.89 ± 0.3 | 0.297 ± 0.006
x1 = 0.95 | 710.53 ± 0.31 | 0.289 ± 0.006
x1 = 1 | 708.12 ± 0.31 | 0.283 ± 0.006

refractive index, [2]
Conditions | 288.15 K | 298.15 K | 308.15 K
x1 = 0.05 | 1.36501 ± 0.00031 | 1.36077 ± 0.00031 | 1.35646 ± 0.00031
x1 = 0.1 | 1.36653 ± 0.00031 | 1.3621 ± 0.00031 | 1.35763 ± 0.00031
x1 = 0.15 | 1.36768 ± 0.00031 | 1.3631 ± 0.00031 | 1.3585 ± 0.00031
x1 = 0.2 | 1.3686 ± 0.00031 | 1.36392 ± 0.00031 | 1.35923 ± 0.00031
x1 = 0.25 | 1.36935 ± 0.00031 | 1.36456 ± 0.00031 | 1.35977 ± 0.00031
x1 = 0.3 | 1.36998 ± 0.00031 | 1.3651 ± 0.00031 | 1.36021 ± 0.00031
x1 = 0.35 | 1.37047 ± 0.00031 | 1.3655 ± 0.00031 | 1.36052 ± 0.00031
x1 = 0.4 | 1.37086 ± 0.00031 | 1.36582 ± 0.00031 | 1.36077 ± 0.00031
x1 = 0.45 | 1.37117 ± 0.00031 | 1.36608 ± 0.00031 | 1.36093 ± 0.00031
x1 = 0.5 | 1.3714 ± 0.00031 | 1.3663 ± 0.00031 | 1.36103 ± 0.00031
x1 = 0.55 | 1.37159 ± 0.00031 | 1.36642 ± 0.00031 | 1.36107 ± 0.00031
x1 = 0.6 | 1.37174 ± 0.00031 | 1.36648 ± 0.00031 | 1.36109 ± 0.00031
x1 = 0.65 | 1.37183 ± 0.00031 | 1.36649 ± 0.00031 | 1.36108 ± 0.00031
x1 = 0.7 | 1.37187 ± 0.00031 | 1.36646 ± 0.00031 | 1.36098 ± 0.00031
x1 = 0.7499 | 1.37187 ± 0.00031 | 1.36638 ± 0.00031 | 1.36085 ± 0.00031
x1 = 0.8 | 1.37181 ± 0.00031 | 1.36627 ± 0.00031 | 1.36068 ± 0.00031
x1 = 0.85 | 1.37167 ± 0.00031 | 1.36611 ± 0.00031 | 1.36044 ± 0.00031
x1 = 0.9 | 1.3715 ± 0.00031 | 1.36588 ± 0.00031 | 1.36019 ± 0.00031
x1 = 0.95 | 1.3712 ± 0.00032 | 1.36558 ± 0.00032 | 1.35986 ± 0.00032
x1 = 1 | 1.37093 ± 0.00032 | 1.36524 ± 0.00032 | 1.35944 ± 0.00032

From the NIST ThermoML archive (doi:10.1021/je050367p)
